# Test system: BAA-1720 - MRSA in co-culture with 12600 - MSSA
# Assay: Table 6, MRSA in co-culture with MSSA
# Type: cell-based, Staphylococcus aureus
# Method: Bacterial strains were serially diluted and transferred to a 96-well plate at 135 μL per well. 15 μL of cefoxitin was added to the wells to reach a final concentration of 1.8 μg/mL. The plate was then sealed and incubated at 37° C. for 2 hours or 3 hours. 10 μL of recombinant phage (1.6×10^8 pfu/mL) was added to each well. The plate was then re-sealed and incubated at 37° C. for an additional 1 or 2 hours. A master mix was made containing 15 μL 5× lysis buffer, 50 μL luciferase assay buffer, and 1 μL luciferase substrate per well. 65 μL of master mix was added to each well. Luminescence from the reactions was read on a GLOMAX® Navigator and relative luminal units (RLU) for each reaction were plotted and analyzed. RLU values three times greater than an established background RLU level for LB (>750 RLU) were considered positive. The results, shown in Table 6, indicate that samples with MRSA (38 CFU) can be distinguished from samples containing MSSA (up to 5088 CFU) using a 3-hour antibiotic/1-hour phage incubation protocol. Positive results are in bold. In Table 6, CFU values (318 CFU and 156 CFU) were experimentally validated by direct plating.
# [1] = MSSA detected CFU 1272, MRSA 38
# [2] = MSSA detected CFU 2544, MRSA 38
# [3] = MSSA detected CFU 5088, MRSA 38
# [4] = MSSA detected CFU 10176, MRSA 38
smiles,measurement,setting,value
"CO[C@@]1(NC(=O)Cc2cccs2)C(=O)N2C(C(=O)O)=C(COC(N)=O)CS[C@@H]21 [Cefoxitin, cefoxitin]",2 HR AB + 2 HR Phage 1.8 ug/mL,"MSSA detected CFU 156, MRSA 38",5084 RLU
same,3 HR AB + 1 HR Phage 1.8 ug/mL,"MSSA detected CFU 156, MRSA 38",3976 RLU
same,2 HR AB + 2 HR Phage 1.8 ug/mL,"MSSA detected CFU 318, MRSA 38",7143 RLU
same,3 HR AB + 1 HR Phage 1.8 ug/mL,"MSSA detected CFU 318, MRSA 38",4567 RLU
same,2 HR AB + 2 HR Phage 1.8 ug/mL,"MSSA detected CFU 636, MRSA 38",7217 RLU
same,3 HR AB + 1 HR Phage 1.8 ug/mL,"MSSA detected CFU 636, MRSA 38",3946 RLU
same,2 HR AB + 2 HR Phage 1.8 ug/mL,[1],6263 RLU
same,3 HR AB + 1 HR Phage 1.8 ug/mL,[1],4930 RLU
same,2 HR AB + 2 HR Phage 1.8 ug/mL,[2],10730 RLU
same,3 HR AB + 1 HR Phage 1.8 ug/mL,[2],3749 RLU
same,2 HR AB + 2 HR Phage 1.8 ug/mL,[3],11400 RLU
same,3 HR AB + 1 HR Phage 1.8 ug/mL,[3],3548 RLU
same,2 HR AB + 2 HR Phage 1.8 ug/mL,[4],13260 RLU
same,3 HR AB + 1 HR Phage 1.8 ug/mL,[4],5347 RLU
